Measured values from ChEMBL document CHEMBL1137094, “Facile incorporation of urea pseudopeptides into protease substrate analogue inhibitors” (Bioorg Med Chem Lett, 2004).

Legend:
[1] = target: Human immunodeficiency virus type 1 protease (Human immunodeficiency virus 1, UniProt Q72874); assay: Inhibitory concentration against human immunodeficiency virus protease in fluorescence assay
[2] = target: T1, Angiotensin-converting enzyme (Sus scrofa, UniProt Q4ACT8); assay: Inhibitory concentration against porcine kidney angiotensin converting enzyme cleavage of hippuryl-histidyl-leucine (HHL)
T1 sequence (Q4ACT8 whole entry): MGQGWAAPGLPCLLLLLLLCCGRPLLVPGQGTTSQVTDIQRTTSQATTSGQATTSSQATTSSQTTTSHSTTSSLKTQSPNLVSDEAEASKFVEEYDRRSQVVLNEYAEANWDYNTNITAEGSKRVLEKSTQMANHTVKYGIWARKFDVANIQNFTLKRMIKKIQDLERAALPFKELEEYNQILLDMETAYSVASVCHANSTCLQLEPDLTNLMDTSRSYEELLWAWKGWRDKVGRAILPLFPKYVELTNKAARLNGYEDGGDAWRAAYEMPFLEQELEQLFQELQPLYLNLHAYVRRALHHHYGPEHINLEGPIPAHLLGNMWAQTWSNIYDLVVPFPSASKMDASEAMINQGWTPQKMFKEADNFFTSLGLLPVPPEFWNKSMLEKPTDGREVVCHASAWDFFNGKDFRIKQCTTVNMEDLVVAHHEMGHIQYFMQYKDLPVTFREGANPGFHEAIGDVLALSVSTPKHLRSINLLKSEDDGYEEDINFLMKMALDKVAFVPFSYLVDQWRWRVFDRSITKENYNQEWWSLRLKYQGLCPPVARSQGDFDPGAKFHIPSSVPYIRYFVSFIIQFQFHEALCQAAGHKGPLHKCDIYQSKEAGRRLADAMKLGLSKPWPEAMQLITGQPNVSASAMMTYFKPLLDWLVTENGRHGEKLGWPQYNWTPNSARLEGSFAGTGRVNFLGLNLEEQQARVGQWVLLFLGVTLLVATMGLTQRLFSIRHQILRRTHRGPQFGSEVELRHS

[3] = target: Human immunodeficiency virus type 1 protease (Human immunodeficiency virus 1) (UniProt Q72874); assay: Percent inhibition against human immunodeficiency virus protease in fluorescence assay; conditions: concentration not given here

Compound `COC(=O)[C@@H](NC(=O)[C@@H](NC(=O)[C@H](Cc1ccccc1)NC(=O)N[C@H](Cc1ccccc1)NC(=O)[C@H](C)NC(=O)[C@H](C)N)C(C)C)C(C)C` has an IC50 [1] of 32.4 µM.

Work on `CC(C)C[C@H](NC(=O)[C@H](Cc1ccccc1)NC(=O)NCNC(=O)CNC(=O)[C@@H](N)Cc1ccc(O)cc1)C(=O)O` yielded an IC50 [2] of 880 µM.

For `COC(=O)[C@@H](NC(=O)[C@@H](NC(=O)C(Cc1ccccc1)NC(=O)N[C@H](Cc1ccccc1)NC(=O)[C@H](C)NC(=O)[C@H](C)NC(=O)OCc1ccccc1)C(C)C)C(C)C` (stereo partly drawn), the inhibition [3] was 35%.
